What was measured:
Type in all cases: biochemical
[1] = target: T1, HCV NS3/4A 1b protease enzyme (wild type) (Hepatitis C virus genotype 1b, UniProt P26663); experiment: HCV protease FRET assay (IC50_APP), wild type NS3/4A 1b
T1 construct: 10× stocks of NS3/4A protease enzyme from Bioenza (Mountain View, Calif.); purchased Bioenza
Experimental: HCV Protease FRET Assay for WT and Mutated NS3/4A 1b Enzymes (IC50_APP).
The following protocol was used to generate “apparent” IC50 (IC50_APP) values as depicted in Table 6, below. Without wishing to be bound by any particular theory, it is believed that IC50_APP, contrasted with IC50 values, may provide a more useful indication of time-dependent inhibition, and are thus more representative of binding affinity. […] 5 μL of each enzyme were added to Corning (#3575) 384-well, black, microtiter plates (Corning, N.Y.) after spotting a 0.5 μL volume of 50% DMSO and serially diluted compounds prepared in 50% DMSO. Protease reactions were immediately started after enzyme addition with the addition of 45 μL of the FRET substrate and monitored for 60-90 minutes at λex485/λem520 in a Synergy plate reader from BioTek (Winooski, Vt.). At the conclusion of each assay, progress curves from each well were examined for linear reaction kinetics and fit statistics (R^2, 95% confidence intervals, absolute sum of squares). Initial velocity (0 minutes to 15+ minutes) from each reaction was determined from the slope of a plot of relative fluorescence units vs time (minutes) and then plotted against inhibitor concentration as a percent of the no inhibitor and no enzyme controls to estimate apparent IC50 from log [Inhibitor] vs Response. (Variable Slope model in GraphPad Prism from GraphPad Software (San Diego, Calif.).)

p110α/p85α (PI3Kα) = target: T2, p110α/p85α (PI3Kα) (Homo sapiens, UniProt P42336); experiment: HTRF assay, p110α/p85α; details: read-out: PI3Kα-HTRF-IC50 nM Inhibition Designation
T2 construct: purchased BPS Bioscience or Millipore 40620 (BPS Bioscience) or 14-602 (Millipore)
T2 sequence (P42336 whole entry): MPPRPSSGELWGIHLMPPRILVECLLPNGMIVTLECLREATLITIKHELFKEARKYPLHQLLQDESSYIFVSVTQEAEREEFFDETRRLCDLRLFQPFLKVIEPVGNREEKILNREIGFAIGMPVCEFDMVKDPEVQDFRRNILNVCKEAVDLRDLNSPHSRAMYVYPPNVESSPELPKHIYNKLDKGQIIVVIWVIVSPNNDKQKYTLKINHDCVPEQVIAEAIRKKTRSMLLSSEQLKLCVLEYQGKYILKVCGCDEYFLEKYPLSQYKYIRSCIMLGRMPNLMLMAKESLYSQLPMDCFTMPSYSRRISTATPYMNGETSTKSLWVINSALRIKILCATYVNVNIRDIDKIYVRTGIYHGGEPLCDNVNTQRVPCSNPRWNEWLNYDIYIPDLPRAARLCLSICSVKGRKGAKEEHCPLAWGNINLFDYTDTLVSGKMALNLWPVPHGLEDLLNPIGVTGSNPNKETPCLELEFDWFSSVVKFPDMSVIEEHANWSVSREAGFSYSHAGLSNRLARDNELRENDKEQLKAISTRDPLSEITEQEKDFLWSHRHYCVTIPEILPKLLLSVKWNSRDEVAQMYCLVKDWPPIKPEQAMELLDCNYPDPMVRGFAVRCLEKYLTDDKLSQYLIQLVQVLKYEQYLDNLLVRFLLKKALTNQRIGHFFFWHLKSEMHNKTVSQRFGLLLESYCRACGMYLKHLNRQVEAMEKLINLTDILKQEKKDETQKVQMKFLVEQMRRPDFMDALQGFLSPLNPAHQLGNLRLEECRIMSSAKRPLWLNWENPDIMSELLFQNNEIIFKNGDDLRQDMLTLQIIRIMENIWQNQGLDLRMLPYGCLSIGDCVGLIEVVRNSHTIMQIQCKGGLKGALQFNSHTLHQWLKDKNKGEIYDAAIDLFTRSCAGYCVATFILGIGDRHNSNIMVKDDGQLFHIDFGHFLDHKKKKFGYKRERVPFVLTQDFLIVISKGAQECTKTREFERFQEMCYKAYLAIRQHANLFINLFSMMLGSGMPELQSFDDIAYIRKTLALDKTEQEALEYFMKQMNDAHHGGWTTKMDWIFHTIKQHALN
T2 sequence (P27986 whole entry partner): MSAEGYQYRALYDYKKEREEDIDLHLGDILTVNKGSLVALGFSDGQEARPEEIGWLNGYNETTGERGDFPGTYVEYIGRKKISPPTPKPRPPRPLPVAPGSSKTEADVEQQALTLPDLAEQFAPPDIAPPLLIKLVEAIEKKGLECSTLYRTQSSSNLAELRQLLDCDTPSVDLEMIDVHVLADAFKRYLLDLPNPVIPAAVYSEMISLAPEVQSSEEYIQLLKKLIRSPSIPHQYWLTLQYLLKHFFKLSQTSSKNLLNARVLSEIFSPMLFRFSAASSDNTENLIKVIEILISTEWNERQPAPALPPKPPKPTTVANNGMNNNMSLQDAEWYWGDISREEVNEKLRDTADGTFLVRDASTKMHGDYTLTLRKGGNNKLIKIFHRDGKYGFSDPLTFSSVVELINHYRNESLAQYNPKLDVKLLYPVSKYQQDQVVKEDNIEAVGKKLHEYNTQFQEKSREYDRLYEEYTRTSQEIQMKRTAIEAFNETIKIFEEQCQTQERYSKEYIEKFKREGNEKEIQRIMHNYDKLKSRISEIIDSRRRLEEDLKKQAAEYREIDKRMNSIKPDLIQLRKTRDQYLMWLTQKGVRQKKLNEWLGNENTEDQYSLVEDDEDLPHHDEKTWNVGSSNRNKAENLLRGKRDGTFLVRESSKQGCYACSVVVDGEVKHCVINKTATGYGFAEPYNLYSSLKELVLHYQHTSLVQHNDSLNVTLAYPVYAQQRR
Experimental: HTRF Assay Protocol for Potency Assessment Against the Active Form of p110α/p85α:
The mechanics of the assay platform are best described by the vendor (Millipore, Billerica, Mass.) on their website at the following URL: http://www.millipore.com/coa/tech1/74jt4z.
Briefly, Stop solution (Stop A, #33-007 and Stop B, #33-009; 3:1 ratio) and Detection Mix (DMC, #33-015 with DMA, #33-011 and DMB, #33-013; 18:1:1 ratio) were prepared as recommended by the manufacturer ˜2 hrs prior to use. […] Lipid kinase reactions were started with the addition of 5 μL of ATP solution, mixed for 15 sec on a rotary plate shaker and incubated for 15-30 minutes at 25° C. Next, reactions were stopped with a 5 μL addition of Stop solution followed by a 5 μL volume of Detection Mix. […] At the conclusion of each assay, the HTRF ratio from fluorescence emission values for each well was calculated and % Inhibition determined from averaged controls wells. % Inhibition values for each compound re then plotted against inhibitor concentration to estimate IC50 from log [Inhibitor] vs Response, Variable Slope model in GraphPad Prism from GraphPad Software (San Diego, Calif.).

p120γ (PI3Kγ) = target: T3, p120γ (PI3Kγ) (Homo sapiens, UniProt P48736); experiment: HTRF assay, p120γ; details: PI3Kγ; read-out: PI3Kγ HTRF IC50 Inhibition Designation
T3 construct: purchased BPS Bioscience 40625
T3 sequence (P48736 whole entry): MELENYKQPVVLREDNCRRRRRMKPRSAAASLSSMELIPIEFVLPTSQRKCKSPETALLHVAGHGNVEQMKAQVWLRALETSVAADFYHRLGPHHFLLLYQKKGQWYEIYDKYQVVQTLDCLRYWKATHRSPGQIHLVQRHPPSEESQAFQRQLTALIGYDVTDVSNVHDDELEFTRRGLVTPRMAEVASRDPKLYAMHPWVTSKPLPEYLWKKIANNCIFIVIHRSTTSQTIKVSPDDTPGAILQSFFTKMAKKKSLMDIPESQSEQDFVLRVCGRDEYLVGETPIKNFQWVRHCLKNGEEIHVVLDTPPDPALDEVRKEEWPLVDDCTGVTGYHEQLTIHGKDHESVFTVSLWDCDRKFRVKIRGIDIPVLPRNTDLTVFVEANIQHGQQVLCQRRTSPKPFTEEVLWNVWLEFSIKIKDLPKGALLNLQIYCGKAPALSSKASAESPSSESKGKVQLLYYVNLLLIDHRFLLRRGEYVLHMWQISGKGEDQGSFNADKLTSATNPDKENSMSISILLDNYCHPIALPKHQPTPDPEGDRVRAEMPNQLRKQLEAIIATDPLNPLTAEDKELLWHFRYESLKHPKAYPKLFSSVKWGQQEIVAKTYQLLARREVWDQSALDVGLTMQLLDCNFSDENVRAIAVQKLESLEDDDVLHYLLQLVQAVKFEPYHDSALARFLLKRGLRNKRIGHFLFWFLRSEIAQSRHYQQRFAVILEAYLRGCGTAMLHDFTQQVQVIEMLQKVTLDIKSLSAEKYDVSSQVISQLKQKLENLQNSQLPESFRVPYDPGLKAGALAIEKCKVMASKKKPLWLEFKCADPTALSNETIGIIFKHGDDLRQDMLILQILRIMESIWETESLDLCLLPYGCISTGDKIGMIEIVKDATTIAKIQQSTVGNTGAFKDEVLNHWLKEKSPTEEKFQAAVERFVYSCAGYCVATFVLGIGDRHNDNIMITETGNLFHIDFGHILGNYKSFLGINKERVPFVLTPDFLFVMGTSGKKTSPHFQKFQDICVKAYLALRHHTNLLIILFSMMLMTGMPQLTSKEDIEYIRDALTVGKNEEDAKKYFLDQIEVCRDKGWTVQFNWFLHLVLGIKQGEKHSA
From the text: The protocol below describes an end-point, competition-binding HTRF assay used to measure inherent potency of test compounds against active p110α/p85α, p110β/p85α, p120γ enzymes. The mechanics of the assay platform are best described by the vendor (Millipore, Billerica, Mass.) on their website at the following URL: http://www.millipore.com/coa/tech1/74jt4z.
Briefly, Stop solution (Stop A, #33-007 and Stop B, #33-009; 3:1 ratio) and Detection Mix (DMC, #33-015 with DMA, #33-011 and DMB, #33-013; 18:1:1 ratio) were prepared as recommended by the manufacturer ˜2 hrs prior to use. Additionally, 1× reaction buffer (4× buffer stock #33-003), a 1.4× stock of enzyme from BPS Bioscience (San Diego, Ca) or Millipore (Billerica, Mass.) with di-C8-PIP2 lipid substrate (#33-005), and a 4×ATP solution (#A7699) Sigma/Aldrich (St. Louis, Mo.) were prepared in 1×reaction buffer. 15 μL of enzyme and lipid substrate mix were pre-incubated in a Corning (#3573) 384-well, black, non-treated microtiter plate (Corning, N.Y.) for 30 min at 25° C. with a 0.5 μL volume of 50% DMSO and serially diluted compounds prepared in 50%-75% DMSO. Lipid kinase reactions were started with the addition of 5 μL of ATP solution, mixed for 15 sec on a rotary plate shaker and incubated for 15-30 minutes at 25° C. Next, reactions were stopped with a 5 μL addition of Stop solution followed by a 5 μL volume of Detection Mix. Stopped reactions were equilibrated for 1 and 18 hrs at room temperature and then read in a Synergy4 plate reader from BioTek (Winooski, Vt.) at λex330-80/λem620-35 and λem665-7.5. At the conclusion of each assay, the HTRF ratio from fluorescence emission values for each well was calculated and % Inhibition determined from averaged controls wells. % Inhibition values for each compound re then plotted against inhibitor concentration to estimate IC50 from log [Inhibitor] vs Response, Variable Slope model in GraphPad Prism from GraphPad Software (San Diego, Calif.).
Reagents Used in Optimized Protocol: • [p120γ]=1-4 nM, [ATP]=50 μM, [di-C8-PIP2]=10 μM • (40625; BPS Bioscience)

T1 sequence (P26663 1658-1711): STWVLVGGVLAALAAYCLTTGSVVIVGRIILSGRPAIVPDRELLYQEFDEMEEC
T1 sequence (P26663 1027-1657): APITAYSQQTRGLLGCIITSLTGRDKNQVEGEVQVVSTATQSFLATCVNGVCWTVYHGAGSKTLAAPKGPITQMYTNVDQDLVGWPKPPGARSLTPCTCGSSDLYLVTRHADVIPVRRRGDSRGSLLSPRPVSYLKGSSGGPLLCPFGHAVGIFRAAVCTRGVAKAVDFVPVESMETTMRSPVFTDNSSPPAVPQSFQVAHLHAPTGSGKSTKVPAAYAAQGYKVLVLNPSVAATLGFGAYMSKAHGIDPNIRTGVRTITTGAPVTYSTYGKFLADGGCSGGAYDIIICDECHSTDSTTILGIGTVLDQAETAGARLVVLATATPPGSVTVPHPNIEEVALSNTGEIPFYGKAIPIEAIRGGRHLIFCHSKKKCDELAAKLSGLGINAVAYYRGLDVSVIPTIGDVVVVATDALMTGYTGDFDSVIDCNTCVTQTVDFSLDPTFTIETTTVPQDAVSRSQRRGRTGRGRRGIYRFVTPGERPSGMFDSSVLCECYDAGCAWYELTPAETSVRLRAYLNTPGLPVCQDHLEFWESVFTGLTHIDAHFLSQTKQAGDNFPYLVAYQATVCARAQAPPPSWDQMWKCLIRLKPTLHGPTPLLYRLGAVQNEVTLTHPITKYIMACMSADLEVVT

| Compound | IC50 [1] [nM] | IC50 (p110α/p85α (PI3Kα)) [nM] | IC50 (p120γ (PI3Kγ)) [nM] |
| --- | --- | --- | --- |
| C=C[C@@H]1C[C@]1(NC(=O)[C@@H]1CC(OC(=O)N2Cc3cccc(F)c3C2)CN1C(=O)[C@H](CN(C)C(=O)[C@@H]1CCC(=O)O1)NC(=O)OC(C)(C)C)C(=O)NS(=O)(=O)C1CC1 (stereo partly drawn) [XVI-19, (5S)-1-((S)-2-(tert-butoxycarbonylamino)-3-((S)-N-methyl-5-oxotetrahydrofuran-2-carboxamido)propanoyl)-5-((1R,2S)-1-(cyclopropylsulfonylcarbamoyl)-2-vinylcyclopropylcarbamoyl)pyrrolidin-3-yl 4-fluoroisoindoline-2-carboxylate] | 1 to 10 | – | – |
| C=C[C@@H]1C[C@]1(NC(=O)[C@@H]1CC(OC(=O)N2Cc3cccc(F)c3C2)CN1C(=O)[C@H](CNC(=O)[C@H]1CCC(=O)O1)NC(=O)OC(C)(C)C)C(=O)NS(=O)(=O)C1CC1 (stereo partly drawn) [XVI-20, (5S)-1-((S)-2-(tert-butoxycarbonylamino)-3-((R)-5-oxotetrahydrofuran-2-carboxamido)propanoyl)-5-((1R,2S)-1-(cyclopropylsulfonylcarbamoyl)-2-vinylcyclopropylcarbamoyl)pyrrolidin-3-yl 4-fluoroisoindoline-2-carboxylate] | 1 to 10 | – | – |
| C=C[C@@H]1C[C@]1(NC(=O)[C@@H]1CC(OC(=O)N2Cc3cccc(F)c3C2)CN1C(=O)[C@H](CNC(=O)[C@@H]1CCC(=O)O1)NC(=O)OC(C)(C)C)C(=O)NS(=O)(=O)C1CC1 (stereo partly drawn) [XVI-21, (5S)-1-((S)-2-(tert-butoxycarbonylamino)-3-((S)-5-oxotetrahydrofuran-2-carboxamido)propanoyl)-5-((1R,2S)-1-(cyclopropylsulfonylcarbamoyl)-2-vinylcyclopropylcarbamoyl)pyrrolidin-3-yl 4-fluoroisoindoline-2-carboxylate] | 1 to 10 | – | – |
| C=C[C@@H]1C[C@]1(NC(=O)[C@@H]1CC(OC(=O)N2Cc3cccc(F)c3C2)CN1C(=O)[C@H]1CCC(=O)O1)C(=O)NS(=O)(=O)C1CC1 (stereo partly drawn) [XVI-22, (5S)-5-((1R,2S)-1-(cyclopropylsulfonylcarbamoyl)-2-vinylcyclopropylcarbamoyl)-1-((R)-5-oxotetrahydrofuran-2-carbonyl)pyrrolidin-3-yl 4-fluoroisoindoline-2-carboxylate] | > 1000 | – | – |
| C=C[C@@H]1C[C@]1(NC(=O)[C@@H]1CC(OC(=O)N2Cc3cccc(F)c3C2)CN1C(=O)[C@@H]1CCC(=O)O1)C(=O)NS(=O)(=O)C1CC1 (stereo partly drawn) [XVI-23, (5S)-5-((1R,2S)-1-(cyclopropylsulfonylcarbamoyl)-2-vinylcyclopropylcarbamoyl)-1-((S)-5-oxotetrahydrofuran-2-carbonyl)pyrrolidin-3-yl 4-fluoroisoindoline-2-carboxylate] | 100 to 1000 | – | – |
| O=C1CC[C@@H](C(=O)N2CC=C(c3cc4nc(-c5cccc(O)c5)nc(N5CCOCC5)c4s3)CC2)O1 [XXII-1] | – | 10 to 100 | 100 to 1000 |
| C=CS(=O)(=O)N1CCN(Cc2cc3nc(-c4cccc5[nH]ncc45)nc(N4CCOCC4)c3s2)CC1 [XXII-8, 4-(2-(1H-indazol-4-yl)-6-((4-(vinylsulfonyl)piperazin-1-yl)methyl)thieno[3,2-d]pyrimidin-4-yl)morpholine] | – | 100 to 1000 | 100 to 1000 |
| C=CS(=O)(=O)Oc1cccc(-c2nc(N3CCOCC3)c3sc(CN(C)S(=O)(=O)C=C)cc3n2)c1 [XXII-9] | – | 100 to 1000 | 100 to 1000 |
| C[C@H]1OC(=O)[C@H]1NC(=O)N1CCN(Cc2cc3nc(-c4cccc5[nH]ncc45)nc(N4CCOCC4)c3s2)CC1 [XXII-13] | – | 100 to 1000 | 100 to 1000 |
| CC(=O)CC(=O)N1CCN(Cc2cc3nc(-c4cccc5[nH]ncc45)nc(N4CCOCC4)c3s2)CC1 [XXII-14] | – | 10 to 100 | – |
| CC(C)Oc1c(N2CCN(Cc3cc4nc(-c5cccc6[nH]ncc56)nc(N5CCOCC5)c4s3)CC2)c(=O)c1=O [XXII-15] | – | 10 to 100 | 100 to 1000 |
| O=C(N1CCN(Cc2cc3nc(-c4cccc5[nH]ncc45)nc(N4CCOCC4)c3s2)CC1)n1ccnc1 [XXII-16, (4-((2-(1H-indazol-4-yl)-4-morpholinothieno[3,2-d]pyrimidin-6-yl)methyl)piperazin-1-yl)(1H-imidazol-1-yl)methanone] | – | 10 to 100 | – |
| O=C(N1CCN(Cc2cc3nc(-c4ccccc4)nc(N4CCOCC4)c3s2)CC1)n1ccnc1 [XXII-18] | – | 1000 to 10000 | – |
| C=CC(=O)N1CCN(Cc2cc3nc(-c4ccccc4)nc(N4CCOCC4)c3s2)CC1 [XXII-19] | – | 1000 to 10000 | – |
| O=C1O[C@H]2C[C@@H]1N(Cc1cc(O)cc(-c3nc(N4CCOCC4)c4sccc4n3)c1)C2 [XXII-20] | – | 100 to 1000 | 1000 to 10000 |
| C=CC(=O)Nc1cccc(-c2nc(N3CCOCC3)c3sccc3n2)c1 [XXII-21] | – | 1000 to 10000 | 1000 to 10000 |
| CC1(C)Cc2nc(N3CCOc4ccc(NC(=O)[C@@H]5CCC(=O)O5)cc43)sc2C(=O)N1 [XXIII-1] | – | 100 to 1000 | 100 to 1000 |
| CC1(C)Cc2nc(N3CCOc4ccc(NC(=O)[C@H]5CCC(=O)O5)cc43)sc2C(=O)N1 [XXIII-2] | – | 100 to 1000 | 100 to 1000 |
| CC1(C)Cc2nc(N3CCOc4ccc(C(=O)N5C[C@H]6C[C@@H]5C(=O)O6)cc43)sc2C(=O)N1 [XXIII-3] | – | 100 to 1000 | 100 to 1000 |
| CC1(C)Cc2nc(N3CCOc4ccc(C(=O)N5C[C@@H]6C[C@H]5C(=O)O6)cc43)sc2C(=O)N1 [XXIII-4, (1S,4S)-5-(4-(6,6-dimethyl-4-oxo-4,5,6,7-tetrahydrothiazolo[5,4-c]pyridin-2-yl)-3,4-dihydro-2H-benzo[b][1,4]oxazine-6-carbonyl)-2-oxa-5-azabicyclo[2.2.1]heptan-3-one] | – | 100 to 1000 | 100 to 1000 |
| C=CC(=O)n1cc(-c2ccc3c(c2)N(c2nc4c(s2)C(=O)NC(C)(C)C4)CCO3)cn1 [XXIII-5, 2-(6-(1-acryloyl-1H-pyrazol-4-yl)-2H-benzo[b][1,4]oxazin-4(3H)-yl)-6,6-dimethyl-6,7-dihydrothiazolo[5,4-c]pyridin-4(5H)-one] | – | 100 to 1000 | – |
| CC1(C)Cc2nc(N3CCOc4ccc(-c5ccc6occc(=O)c6c5)cc43)sc2C(=O)N1 [XXIII-6] | – | 100 to 1000 | 100 to 1000 |
| CC1(C)Cc2nc(N3CCOc4ccc(-c5ccc(C(=O)N6C[C@H]7C[C@@H]6C(=O)O7)cc5)cc43)sc2C(=O)N1 [XXIII-7] | – | 1000 to 10000 | 1000 to 10000 |
| O=C1CC[C@H](C(=O)N2CCN(c3ccnc4ccc(/C=C5\SC(Nc6c(Cl)cccc6Cl)=NC5=O)cc34)CC2)O1 [XXIV-1] | – | 10 to 100 | 100 to 1000 |
| O=C1CC[C@@H](C(=O)N2CCN(c3ccnc4ccc(/C=C5\SC(Nc6c(Cl)cccc6Cl)=NC5=O)cc34)CC2)O1 [XXIV-2] | – | 100 to 1000 | 100 to 1000 |
